Results from patent publication US20060167057A1, “Compounds for the treatment of CNS and amyloid associated diseases” (priority 2004, published 2006).

Tested on: Apolipoprotein E-Aβ interaction
Experiment: Apolipoprotein E-Aβ interaction assay
Type: binding
Conditions: 200 μM test compound; ApoE/Aβ alone = 100%; first value of the cell
Method: The level of interaction between Apolipoprotein E and Aβ was measured for five inventive compounds to determine whether, under the specific conditions of the present example, the compounds would inhibit the interaction. Nunc-Immuno Maxisorp 96-well microtiter plates were coated with 1 μM HFIP-disaggregated Aβ in 0.1 M NaHCO3 pH 9.6 for 2 hours and 15 minutes at 37°, washed two times in TBS (100 mM Tris-HCl, pH 7.5, 150 mM NaCl), and wells were blocked with 1% fatty-acid free BSA in TBS overnight at 4°.
Test compounds were prepared in either TBS or DMSO at a final concentration of either 2 mM or 10 mM respectively. Recombinant ApoE (Fitzgerald Industries Int.) was prepared in 700 mM NH4HCO3 at a final concentration of 0.44 mg/mL to prevent monomer assembly and stored as aliquots at −20°. 3.41 μg/mL of purified ApoE was pre-incubated in the presence of 200 μM test compounds, all in triplicate, in 1% BSA/TBS in a 96-well transfer plate for one hour and then added to the Aβ-coated wells for an additional two hours with gentle shaking at 37° to allow ApoE/Aβ association. Plates were washed three times in TBS to remove excess ApoE and incubated first with 0.125 μg/mL mouse monoclonal anti-ApoE antibody (BD Bioscience) for 1 hour, washed and then incubated with 0.26 μg/mL horse-radish peroxidase conjugated goat anti-IgG antibody (Pierce) for 1 hour in 1% BSA/TBS-T (0.05% Tween-20). After washing, wells were incubated with Sure Blue™ TMB-1 peroxidase substrate (KPL) for 30 minutes. The reaction was stopped using 1N HCl. Absorbance values at 450 nm were measured using TECAN plate reader and reflect the amount of ApoE bound to Aβ in the wells. Data were expressed as a percentage of ApoE/Aβ complexes by arbitrarily setting ApoE/Aβ alone at 100%. All compounds were tested at least twice.

SMILES	Aβ-ApoE % Complex
COc1ccc(-n2nnnc2SCc2cccc(C[C@H](N)C(=O)O)c2)cc1 [drawing 529]	98%
NC(Cc1cccc(CSc2nnnn2-c2ccccc2)c1)C(=O)O (centres unmarked) [drawing 530]	107%
N[C@@H](Cc1cccc(CSc2nnc(-c3ccccc3)[nH]2)c1)C(=O)O [drawing 531]	88%
N[C@@H](Cc1cccc(CSc2nc3ccccc3[nH]2)n1)C(=O)O [drawing 532]	94%
N[C@@H](Cc1cccc(CSc2nnc(-c3ccncc3)o2)c1)C(=O)O [drawing 533]	101%

Same assay, conditions: 200 μM test compound; ApoE/Aβ alone = 100%; second value of the cell

SMILES	Aβ-ApoE % Complex
COc1ccc(-n2nnnc2SCc2cccc(C[C@H](N)C(=O)O)c2)cc1 [drawing 529]	97%
NC(Cc1cccc(CSc2nnnn2-c2ccccc2)c1)C(=O)O (centres unmarked) [drawing 530]	97%
N[C@@H](Cc1cccc(CSc2nnc(-c3ccccc3)[nH]2)c1)C(=O)O [drawing 531]	94%
N[C@@H](Cc1cccc(CSc2nc3ccccc3[nH]2)n1)C(=O)O [drawing 532]	112%
N[C@@H](Cc1cccc(CSc2nnc(-c3ccncc3)o2)c1)C(=O)O [drawing 533]	94%

Tested on: SH-SY5Y cells
Experiment: Hoechst staining assay of Aβ1-42-induced apoptosis
Type: cell-based
Conditions: Homo sapiens, 10 μM Aβ1-42, 200 μM compound, 24 hours, read-out: inhibition of Aβ-induced cellular apoptosis at DNA level
Method: SH-SY5Y cells were cultured and sub-cultured according to ATCC's recommendations. Cells were grown in a culture medium containing 10% fetal bovine serum (FBS), 1× non-essential amino acids in a 1:1 mixture of Eagle's minimum essential medium and Ham's F12 medium.
For passage, cells were trypsinized with 0.25% (w/vol) Trypsin/Ethylene-diaminetetraacetic (EDTA) for 5 min at 37° C., and then centrifuged for 5 min at 300× g (GS-6R Beckman Centrifuge). The pellet was resuspended in the culture medium and the cell density was adjusted.
Synthetic Aβ1-42 is purchased from American Peptide Company, Sunnyvale, Calif. […] The exact concentration of the solution is calculated by measuring the optical density at 280 nm. […]
Nuclear morphology was observed using an Olympus fluorescent microscope IX50 equipped with an Olympus Camera (20× objectif and a bandpass filter (Ex/Em: 355 nm/465 nm). Live cells and cells considered morphologically apoptotic were counted. Apoptotic nuclei of undifferentiated SH-SY5Y appear condensed and occasionally fragmented (representative pictures of Hoechst staining are in FIGS. 1A-1B for vehicle and 2A-2B for Aβ).
Five random fields were captured for each condition in a blinded fashion. Apoptotic and normal nuclei in each field were quantified by manual examination. […] The total number of cells counted in each condition ranged from 120 to 550. […]

SMILES	inhibition at 200 µM
N[C@@H](Cc1cccc(CSc2nnc(-c3ccccc3)[nH]2)c1)C(=O)O [drawing 537]	22.5%

Tested on: HUVEC
Experiment: Cellular toxicity assay on HUVEC (WST-1 viability)
Type: cell-based, human
Conditions: 24 hours, 10^−4 M, <75% considered toxic
Method: Compound samples in PBS (without Ca^+2, Mg^+2)-glucose 3 mM-HEPES 10 mM—DMSO 1%, as prepared in Example 1, were thawed and left for at least 30 minutes at 20-23° C. before preparation of the following sub-dilutions for the compound toxicity assay: • 100 μL of stock compound solution were added to 900 μL PBSD-1 [diluted 1:10 for a final 1:10 dilution] • 100 μL (1/10 dilution above) were added to 900 μL PBSD-1 [diluted 1:10 for a final 1:100 dilution] Culture of HUVEC
Endothelial cells from human umbilical cord (HUV-EC-C or HUVEC) were purchased form American Type Culture Collection (ATCC, CRL-1730) and cultured according to the manufacturer's protocol. A 1-mL frozen aliquot of sub-cultured cells was thawed in a 37° C. water bath and centrifuged following addition of 5 mL of medium. After re-suspension in 5 mL medium, cells were seeded in a TC80 cm^2 flask pre-coated with 0.1% gelatin. Culture medium was replaced every 3-4 days and cells monitored until confluency was reached.
A sterile stock solution of 0.5 mM of camptothecin (Sigma) was prepared by dissolving a weighed amount of 0.0085 g in 50 mL of double distilled water at 37° C. in a water bath. The solution was vortexed, then filtered through a 0.22-μm filter unit and kept at 4° C. for the duration of the toxicity assays.
From the stock solution, concentrations of 60, 75, 80, 100, 150, 200 and 250 nM of camptothecin were prepared in culture diluent containing 1% DMSO.
HUVEC were cultured for 4 days in gelatin-coated 96-well plates, following seeding with 40 μL/well of a cellular suspension of 1×10^5 cells/mL. Culture media was replaced every 3-4 days of culture until confluency was reached.
On the day of the toxicity assay, the conditioned culture media was removed from the wells and 90 μL of culture medium containing 1% DMSO was distributed in the plate. A volume of 10 μL of the stock solution, 1:10 and 1:100 dilutions of the compounds in PBS-glucose-HEPES-DMSO 1% were added to the appropriate wells (100-μL total volume/well). A volume of 100 μL of camptothecin dilutions and culture medium containing 1% DMSO was also distributed into the plate. Cells were incubated at 37° C. of 24 hours and then 10 μL of the tetrazolium salt WST-1 solution were added to cells and incubated for an extra 90 minutes at 37° C. The absorbance that was associated to the cellular viability was measured at 450nm on the SpectraFluor Tecan reader, and the raw data processed.
The intrinsic cellular toxicity of the compounds was determined for each concentration of every compound on HUVEC. The viability percentage was assessed (OD sample/OD control) ×100% and any value <75% viability was considered toxic. The following table, Table 5, lists the few compounds that presented at least one toxic concentration.

SMILES	Viability (%)
NC(Cc1cccc(CSc2nc3ccccc3o2)n1)C(=O)O (centres unmarked) [Compound 30]	110%
O=C(NC(Cc1cccc(CSc2nnc[nH]2)n1)C(=O)O)NC(c1ccccc1)c1ccccc1 (centres unmarked) [Compound 37]	94%
O=C(NC(Cc1cccc(CSc2ncnc3[nH]ncc23)n1)C(=O)O)NC(c1ccccc1)c1ccccc1 (centres unmarked) [Compound 65]	107%
O=C(O)C(Cc1cccc(CSc2nnc[nH]2)n1)NS(=O)(=O)c1ccc(F)cc1 (centres unmarked) [Compound 66]	117%

Same assay, conditions: 24 hours, 10^−5 M, <75% considered toxic

SMILES	Viability (%)
NC(Cc1cccc(CSc2nc3ccccc3o2)n1)C(=O)O (centres unmarked) [Compound 30]	112%
O=C(NC(Cc1cccc(CSc2nnc[nH]2)n1)C(=O)O)NC(c1ccccc1)c1ccccc1 (centres unmarked) [Compound 37]	50%
O=C(NC(Cc1cccc(CSc2ncnc3[nH]ncc23)n1)C(=O)O)NC(c1ccccc1)c1ccccc1 (centres unmarked) [Compound 65]	68%
O=C(O)C(Cc1cccc(CSc2nnc[nH]2)n1)NS(=O)(=O)c1ccc(F)cc1 (centres unmarked) [Compound 66]	114%

Same assay, conditions: 24 hours, 10^−6 M, <75% considered toxic

SMILES	Viability (%)
NC(Cc1cccc(CSc2nc3ccccc3o2)n1)C(=O)O (centres unmarked) [Compound 30]	8%
O=C(NC(Cc1cccc(CSc2nnc[nH]2)n1)C(=O)O)NC(c1ccccc1)c1ccccc1 (centres unmarked) [Compound 37]	87%
O=C(NC(Cc1cccc(CSc2ncnc3[nH]ncc23)n1)C(=O)O)NC(c1ccccc1)c1ccccc1 (centres unmarked) [Compound 65]	109%
O=C(O)C(Cc1cccc(CSc2nnc[nH]2)n1)NS(=O)(=O)c1ccc(F)cc1 (centres unmarked) [Compound 66]	67%

Molecular target: T1, L1 transport system (large neutral amino acid carrier, L1-system carrier) (Rattus norvegicus, UniProt Q63016)
T1 construct: functionality of their endogenous transporters such as the L1-system carrier; endogenous in cells; host or cells: rat primary cerebrovascular (brain microcapillary) endothelial cells, RBEC
T1 sequence (Q63016 whole entry): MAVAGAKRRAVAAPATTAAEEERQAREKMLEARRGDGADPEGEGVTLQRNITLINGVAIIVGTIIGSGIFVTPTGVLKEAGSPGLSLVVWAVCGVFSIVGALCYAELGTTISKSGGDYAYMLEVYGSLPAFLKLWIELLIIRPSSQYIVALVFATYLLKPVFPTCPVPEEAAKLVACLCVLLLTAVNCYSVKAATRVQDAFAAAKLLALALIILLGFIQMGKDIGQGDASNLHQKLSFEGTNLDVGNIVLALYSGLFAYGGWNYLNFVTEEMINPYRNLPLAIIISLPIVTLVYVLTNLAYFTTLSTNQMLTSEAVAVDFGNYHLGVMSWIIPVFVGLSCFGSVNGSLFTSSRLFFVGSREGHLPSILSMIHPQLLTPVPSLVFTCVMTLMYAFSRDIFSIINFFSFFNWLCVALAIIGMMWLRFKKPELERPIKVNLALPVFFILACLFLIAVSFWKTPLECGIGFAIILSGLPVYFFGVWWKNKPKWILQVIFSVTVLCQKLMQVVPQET
T1 sequence (Q794F9 whole entry partner): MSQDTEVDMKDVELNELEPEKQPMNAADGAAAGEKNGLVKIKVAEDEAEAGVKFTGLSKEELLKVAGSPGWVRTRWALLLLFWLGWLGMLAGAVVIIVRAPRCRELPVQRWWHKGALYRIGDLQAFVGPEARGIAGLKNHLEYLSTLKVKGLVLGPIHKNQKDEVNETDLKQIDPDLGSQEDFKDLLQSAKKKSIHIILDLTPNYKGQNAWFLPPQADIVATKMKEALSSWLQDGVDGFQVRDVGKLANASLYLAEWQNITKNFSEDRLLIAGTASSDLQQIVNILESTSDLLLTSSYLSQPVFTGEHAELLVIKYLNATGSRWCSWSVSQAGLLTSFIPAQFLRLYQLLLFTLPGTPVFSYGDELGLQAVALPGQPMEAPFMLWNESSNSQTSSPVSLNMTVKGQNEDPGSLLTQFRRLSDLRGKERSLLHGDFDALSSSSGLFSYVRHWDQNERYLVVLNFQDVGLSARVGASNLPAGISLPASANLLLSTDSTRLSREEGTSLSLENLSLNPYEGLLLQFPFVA
Experiment: Competitive binding assay to the brain L1 transport system (L-[U-14C]phenylalanine on rat primary cerebrovascular endothelial cells)
Conditions: 10^−4 M
Outline: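 Cells were primary cerebral microvascular endothelial cells from cortices of 24-day-old rats, isolated by collagenase/DNAse digestion, dextran separation and mesh filtration.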

SMILES	Comparison with the Binding of Phenylalanine
NC(Cc1cccc(CSc2nc3ccccc3o2)n1)C(=O)O (centres unmarked) [Compound 30]	1 (0 < X < 10 Rank 1)
O=C(NC(Cc1cccc(CSc2nnc[nH]2)n1)C(=O)O)NC(c1ccccc1)c1ccccc1 (centres unmarked) [Compound 37]	2 (10 < X < 20 Rank 2)
O=C(O)C(Cc1cccc(CSc2nnc[nH]2)n1)NS(=O)(=O)c1ccc(F)cc1 (centres unmarked) [Compound 66]	2 (10 < X < 20 Rank 2)

Same assay, conditions: 10^−5 M

SMILES	Comparison with the Binding of Phenylalanine
NC(Cc1cccc(CSc2nc3ccccc3o2)n1)C(=O)O (centres unmarked) [Compound 30]	2 (10 < X < 20 Rank 2)
O=C(NC(Cc1cccc(CSc2nnc[nH]2)n1)C(=O)O)NC(c1ccccc1)c1ccccc1 (centres unmarked) [Compound 37]	3 (X > 20 Rank 3)
O=C(O)C(Cc1cccc(CSc2nnc[nH]2)n1)NS(=O)(=O)c1ccc(F)cc1 (centres unmarked) [Compound 66]	3 (X > 20 Rank 3)

Same assay, conditions: 10^−6 M

SMILES	Comparison with the Binding of Phenylalanine
NC(Cc1cccc(CSc2nc3ccccc3o2)n1)C(=O)O (centres unmarked) [Compound 30]	3 (X > 20 Rank 3)
O=C(NC(Cc1cccc(CSc2nnc[nH]2)n1)C(=O)O)NC(c1ccccc1)c1ccccc1 (centres unmarked) [Compound 37]	2 (10 < X < 20 Rank 2)
O=C(O)C(Cc1cccc(CSc2nnc[nH]2)n1)NS(=O)(=O)c1ccc(F)cc1 (centres unmarked) [Compound 66]	0 (X < 0 Rank 0)
